Test system: Corticium sasakii
Assay: Activity against sheath blight on rice caused by Corticium sasakii (protective spray on potted rice plants)
Format: in vivo
Conditions: individual active compound, rice cultivar Tai-Nong 67, evaluated after 11 days, untreated control 90% infection
Experimental: 1% by weight of the emulsifier Uniperol® EL (wetting agent having emulsifying and dispersing action based on ethoxylated alkylphenols) was added to this solution, and the solution was diluted with water to the desired concentration.
Use example—Activity against sheath blight on rice caused by Corticium sasakii
The next day, oat grains infected with Corticium sasakii were placed into the pots (in each case 5 grains per pot). The plants were then placed in a chamber at 26° C. and maximum atmospheric humidity.
Evaluation is carried out by determining the infected leaf areas in percent. These percentages were converted into efficacies.
The efficacy (E) is calculated as follows using Abbot's formula: E=(1−α/β)·100 • α corresponds to the fungicidal infection of the treated plants in % and • β corresponds to the fungicidal infection of the untreated (control) plants in %
An efficacy of 0 means that the infection level of the treated plants corresponds to that of the untreated control plants; an efficacy of 100 means that the treated plants are not infected.

## manganese-ethylenebis(dithiocarbamate)zinc complex [II.1]
1 ppm in the spray liquor
  Efficacy in % of the untreated control: 0%
16 ppm in the spray liquor
  Efficacy in % of the untreated control: 11%

## CN(C)C(=S)SSC(=S)N(C)C [II.5, bis(dimethylthiocarbamoyl)disulfide]
1 ppm in the spray liquor
  Efficacy in % of the untreated control: 0%
16 ppm in the spray liquor
  Efficacy in % of the untreated control: 0%

## CC1CCN(c2c(-c3c(F)cc(F)cc3F)c(Cl)nc3ncnn23)CC1 [I, 5-chloro-7-(4-methylpiperidin-1-yl)-6-(2,4,6-trifluorophenyl)-[1,2,4]tri-azolo[1,5-a]pyrimidine]
4 ppm in the spray liquor
  Efficacy in % of the untreated control: 33%

## CC1CCN(c2c(-c3c(F)cccc3Cl)c(Cl)nc3ncnn23)CC1 [A]
4 ppm in the spray liquor
  Efficacy in % of the untreated control: 0%

## zinc ammoniate-ethylenebis(dithiocarbamate) [II.3]
1 ppm in the spray liquor
  Efficacy in % of the untreated control: 0%
16 ppm in the spray liquor
  Efficacy in % of the untreated control: 22%

## manganese-ethylenebis(dithiocarbamate) [II.2]
1 ppm in the spray liquor
  Efficacy in % of the untreated control: 0%
16 ppm in the spray liquor
  Efficacy in % of the untreated control: 11%

## CC(Nc1c(-c2c(F)cc(F)cc2F)c(Cl)nc2ncnn12)C(F)(F)F (centres unmarked) [B]
4 ppm in the spray liquor
  Efficacy in % of the untreated control: 67%
